Measured values taken from patent US9688681B2, “Heterocyclic compounds as pest control agents” (BAYER CROPSCIENCE AKTIENGESELLSCHAFT, priority 2013, dated 2017).
Read-outs that look alike come from different tables or passages of the source.

Key:
[1] = log P by HPLC on reversed-phase C18 columns (OECD Guideline 117); format: physicochemical; details: for logP[a]: HPLC RP C18, acidic range pH 2.7, 0.1% aqueous formic acid/acetonitrile; for logP[b]: HPLC RP C18, neutral range pH 7.8, 0.001 molar aqueous ammonium hydrogencarbonate/acetonitrile; for chromatographic logP: reversed-phase C18 HPLC column
[2] = system: green peach aphid (Myzus persicae); details: application rate 20 ppm, after 6 days, bell pepper plants sprayed to runoff
Experimental: Myzus persicae—Spray Test
Solvent: 7 parts by weight of dimethylformamide
Emulsifier: alkylaryl polyglycol ether
To produce an appropriate active ingredient formulation, 1 part by weight of active ingredient is dissolved using the specified parts by weight of solvent and made up with water containing an emulsifier concentration of 1000 ppm until the desired concentration is attained. To produce further test concentrations, the preparation is diluted with emulsifier-containing water. If the addition of ammonium salts or/and penetrants is required, these are each added in a concentration of 1000 ppm to the formulation solution.
After 6 days, the kill in % is determined. 100% means that all the aphids have been killed; 0% means that no aphids have been killed.

[3] = system: green peach aphid (Myzus persicae); assay: Myzus persicae spray test on Chinese cabbage leaf discs; format: in vivo; details: application rate 500 g/ha, after 6 days
From the text: Discs of Chinese cabbage leaves (Brassica pekinensis) infested by all stages of the green peach aphid (Myzus persicae) are sprayed with an active ingredient formulation of the desired concentration.

[4] = system: southern root-knot nematode (Meloidogyne incognita); details: application rate 20 ppm, after 14 days, lettuce in sand
Experimental: Meloidogvne incognita Test (MELGIN)
Solvent: 125.0 parts by weight of acetone
To produce an appropriate active ingredient formulation, 1 part by weight of active ingredient is mixed with the specified amounts of solvent and the concentrate is diluted to the desired concentration with water.
Vessels are filled with sand, active ingredient solution, an egg/larvae suspension of the southern root-knot nematode (Meloidogyne incognita) and lettuce seeds. The lettuce seeds germinate and the plants develop.
After 14 days, the nematicidal efficacy in % is determined by the formation of galls.

[5] = pH 2.7, HPLC RP C18, acidic range pH 2.7, 0.1% aqueous formic acid/acetonitrile, read-out: logP[a]
[6] = pH 7.8, HPLC RP C18, neutral range pH 7.8, 0.001 molar aqueous ammonium hydrogencarbonate/acetonitrile, read-out: logP[b]

Row | Compound | logP[a] [1] | logP[b] [1] | efficacy (kill) [2] [%] | efficacy (aphids killed) [3] [%] | nematicidal efficacy (formation of galls) [4] [%] | chromatographic logP [1, 5] | chromatographic logP [1, 6]
1 | CSCCn1cnc2nn(-c3cccnc3)cc2c1=O [compound 27] | 1.13 | 1.19 | 90 | – | – | – | –
2 | CSCC(C)n1cnc2nn(-c3cccnc3)cc2c1=O (stereo not drawn) [compound 31] | 1.36 | 1.40 | 95 | – | – | – | –
3 | O=c1c2cn(-c3cccnc3)nc2ncn1CC1CC1 [compound 33] | 1.23 | 1.27 | – | 100 | – | – | –
4 | O=c1c2cn(-c3cccnc3)nc2ncn1-c1ccc(Cl)cc1 [compound 14] | 1.74 | – | – | 90 | 100 | – | –
5 | CC(F)(F)Cn1cnc2nn(-c3cccnc3)cc2c1=O [compound 24] | 1.19 | 1.21 | – | 100 | – | – | –
6 | CC(C)n1nnc2nn(-c3cccnc3)cc2c1=O [compound 36, 3-Isopropyl-6-(3-pyridyl)pyrazolo[3,4-d]triazin-4-one] | – | – | – | 90 | – | 1.72 | 1.7
7 | CC(c1ccccn1)n1cnc2nn(-c3cccnc3)cc2c1=O (stereo not drawn) [compound 21] | 1.13 | 1.32 | – | 90 | – | – | –
8 | CC(C)n1cnc2nn(-c3ccnnc3)cc2c1=O [compound 38, 5-Isopropyl-2-pyridazin-4-yl-pyrazolo[3,4-d]pyrimidin-4-one] | – | – | – | 90 | – | 0.85 | 0.85
9 | Cc1nc2nn(-c3cccnc3)cc2c(=O)n1C(C)C [compound 28] | 1.28 | 1.35 | – | 90 | – | – | –
